Reference: US5010064A, “Inclusion complexes of dipyridamole with cyclodextrins” (Edmond Pharma s.r.l., priority 1987, dated 1991)

Experiments:
[1] = in vivo; conditions: dog, plasma, po, 75 mg
Procedure: (§1) Studies have been carried out on Beagle dogs (male and female; body weight 10-11 kg) following an experimental scheme in "cross over".
(§2) The blood has been collected in the presence of eparine (10 U.I./ml) and the plasma, separated by centrifugation, has been immediately frozen and stored at -20° C. until extraction. After about 10-20 days of storage, 0.2 ml of plasma has been drawn from each sample and mixed for 15 seconds with 0.5 ml of NaOH 1N. Thereafter, 4 ml of terbutylmethylether have been added and the whole has been stirred for 1 minute. In order to separate the aqueous phase from the organic phase the whole has been centrifuged for 5 minutes. The organic phase has been then removed and dried to dryness under nitrogen stream. […] An excitation wave length of 285 nm has been chosen in connection with an emission filter of 470 nm.

[2] = cited from earlier work
[3] = system: platelet aggregation (ADP-induced) in platelet rich plasma of rabbits; assay: platelet aggregation inhibiting activity ex vivo; type: in vivo, New Zealand rabbit
Procedure: The platelet rich plasma (PRP) has been separated by centrifugation for 10 minutes and has been suitable diluted to have always 250,000-300,000 platelet/mm^3 with plasma free of platelets (obtained from blood samples by further centrifugation for 10 minutes at 3200 rpm.
The platelet aggregation has been measured by the turbidimetric method under continuous stirring at 37° C., after having added ADP (Adenosine diphosphate to PRP (1.5 μg/ml).

[4] = pH higher than 5.5-6; cited from earlier work
[5] = dog, oral, 75 mg active ingredient; 0 min
Procedure: as §1, §2

concentration at 10 min [1]: 8 ng/mL
concentration at 20 min [1]: 24 ng/mL
concentration at 0.5 h [1]: 784 ng/mL
concentration at 0.75 h [1]: 1620 ng/mL
concentration at 1 h [1]: 2840 ng/mL
concentration at 1.5 h [1]: 3960 ng/mL
concentration at 2 h [1]: 4710 ng/mL
concentration at 2.5 h [1]: 4730 ng/mL
concentration at 3 h [1]: 2930 ng/mL
concentration at 4 h [1]: 1970 ng/mL
concentration at 5 h [1]: 1290 ng/mL
concentration at 6 h [1]: 628 ng/mL
concentration at 7 h [1]: 360 ng/mL
average plasma concentration of dipyridamole [5]: 0
SMILES: OCCN(CCO)c1nc(N2CCCCC2)c2nc(N(CCO)CCO)nc(N3CCCCC3)c2n1 [dipyridamole, 2,2',2",2"'-(4,8-dipiperidinopyrimido/5,4,d/-pyrimidine-2,6-diyldinitrilo)tetraethanol]
blood level at which not pharmacologically active ([2]; in vivo): 0.5-1 γ/ml
blood level with undesired side effects (cephalea and nausea) ([2]; in vivo): 2000 to 2500 ng/mL
adsorption ([2]; in words): not well adsorbed
variability of blood levels between and within subjects ([2]; in words): blood levels different from one to another subject and for repeated administrations in the same subject
blood level needed to be active as platelet aggregation inhibiting agent ([2]; man): higher than 1 mcg/ml
upper blood level (might show side effects such as cephalea and nausea) ([2]; man): 2.0 to 2.5 µg/mL
% platelet aggregation ([3]; 10 mg/kg os, 0 hr): 83 ± 3.0%
% platelet aggregation ([3]; 10 mg/kg os, 0.5 hr): 63 ± 3.7%
% platelet aggregation ([3]; 10 mg/kg os, 1 hr): 44 ± 3.2%
% platelet aggregation ([3]; 10 mg/kg os, 2 hr): 40 ± 2.9%
% platelet aggregation ([3]; 10 mg/kg os, 4 hr): 49 ± 2.7%
% platelet aggregation ([3]; 20 mg/kg os, 0 hr): 87 ± 3.2%
% platelet aggregation ([3]; 20 mg/kg os, 0.5 hr): 58 ± 5.9%
% platelet aggregation ([3]; 20 mg/kg os, 1 hr): 29 ± 4.1%
% platelet aggregation ([3]; 20 mg/kg os, 2 hr): 27 ± 3.8%
% platelet aggregation ([3]; 20 mg/kg os, 4 hr): 38 ± 3.9%
solubility in water [4]: poor soluble in water
